The experiment deals with FGFR3 enzyme. In words: FGFR Enzymatic Assay (FRET peptide phosphorylation), FGFR3. As to conditions: IC50 ratio showing FGFR3 selectivity; Table 2A, pre-incubated for 4 hours. In kind it is biochemical. The procedure: The inhibitor potency of the exemplified compounds was measured in an enzyme assay that measures peptide phosphorylation using FRET measurements to detect product formation. Inhibitors were serially diluted in DMSO and a volume of 0.5 μL was transferred to the wells of a 384-well plate.
GraphPad prism3 was used to analyze the data.

In the case of `COc1cc(OC)c(F)c(N2Cc3cnc(-c4cn(C)nc4C)cc3N(c3cnn(C4CC4)c3)C2=O)c1F` [Example 130, 1-(1-cyclopropyl-1H-pyrazol-4-yl)-3-(2,6-difluoro-3,5-dimethoxyphenyl)-7-(1,3-dimethyl-1H-pyrazol-4-yl)-3,4-dihydropyrido[4,3-d]pyrimidin-2(1H)-one], the FGFR1/FGFR3 is more than 5 and the FGFR4/FGFR3 is reported as more than 5.

As to `CCn1cc(N2C(=O)N(c3c(F)c(OC)cc(OC)c3F)Cc3cnc(-c4cn(C)nc4C)cc32)cn1` [Example 131, 3-(2,6-difluoro-3,5-dimethoxyphenyl)-7-(1,3-dimethyl-1H-pyrazol-4-yl)-1-(1-ethyl-1H-pyrazol-4-yl)-3,4-dihydropyrido[4,3-d]pyrimidin-2(1H)-one], the FGFR1/FGFR3 is on record as more than 3 and the FGFR4/FGFR3 is on record as more than 10.

As for `CCCn1cc(N2C(=O)N(c3c(F)c(OC)cc(OC)c3F)Cc3cnc(-c4cn(C)nc4C)cc32)cn1` [Example 132, 3-(2,6-difluoro-3,5-dimethoxyphenyl)-7-(1,3-dimethyl-1H-pyrazol-4-yl)-1-(1-propyl-1H-pyrazol-4-yl)-3,4-dihydropyrido[4,3-d]pyrimidin-2(1H)-one], the FGFR1/FGFR3 is more than 3 and the FGFR4/FGFR3 is more than 5.

For the compound `COc1cc(OC)c(F)c(N2Cc3cnc(-c4cn(C)nc4C)cc3N(c3ccc4cn[nH]c4c3)C2=O)c1F` [Example 133, 3-(2,6-difluoro-3,5-dimethoxyphenyl)-7-(1,3-dimethyl-1H-pyrazol-4-yl)-1-(1H-indazol-6-yl)-3,4-dihydropyrido[4,3-d]pyrimidin-2(1H)-one], the FGFR1/FGFR3 is more than 3 and the FGFR4/FGFR3 is listed as more than 5.

Consider `COc1cc(OC)c(F)c(N2Cc3cnc(-c4cn(C)nc4C)cc3N(c3ccc4[nH]ncc4c3)C2=O)c1F` [Example 134, 3-(2,6-difluoro-3,5-dimethoxyphenyl)-7-(1,3-dimethyl-1H-pyrazol-4-yl)-1-(1H-indazol-5-yl)-3,4-dihydropyrido[4,3-d]pyrimidin-2(1H)-one], for which the FGFR1/FGFR3 is more than 3 and the FGFR4/FGFR3 is listed as more than 5.

As for `COc1cc(OC)c(F)c(N2Cc3cnc(-c4ccc(C5(C#N)CCC5)nc4)cc3N(c3ccncn3)C2=O)c1F` [Example 135, 1-(5-(3-(2,6-difluoro-3,5-dimethoxyphenyl)-2-oxo-1-(pyrimidin-4-yl)-1,2,3,4-tetrahydropyrido[4,3-d]pyrimidin-7-yl)pyridin-2-yl)cyclobutanecarbonitrile], the FGFR1/FGFR3 is given as more than 5 and the FGFR4/FGFR3 is more than 10.

Regarding `COc1cc(OC)c(F)c(N2Cc3cnc(-c4cn(CCCN5CCOCC5)nc4C)cc3C3(CC3)C2=O)c1F` [Example 146, 2′-(2,6-difluoro-3,5-dimethoxyphenyl)-6′-(3-methyl-1-(3-morpholinopropyl)-1H-pyrazol-4-yl)-1′H-spiro[cyclopropane-1,4′-[2,7]naphthyridin]-3′(2′H)-one], the FGFR1/FGFR3 is reported as more than 10 and the FGFR4/FGFR3 is given as more than 5.

Consider `COc1cc(OC)c(F)c(N2Cc3cnc(-c4cnn(C5CCN(S(C)(=O)=O)C5)c4)cc3C3(CC3)C2=O)c1F` (stereo not shown) [Example 147, 2′-(2,6-difluoro-3,5-dimethoxyphenyl)-6′-(1-(1-(methylsulfonyl)pyrrolidin-3-yl)-1H-pyrazol-4-yl)-1′H-spiro[cyclopropane-1,4′-[2,7]naphthyridin]-3′(2′H)-one], for which the FGFR1/FGFR3 is given as more than 10 and the FGFR4/FGFR3 is more than 3.

For `COc1cc(OC)c(F)c(N2Cc3cnc(-c4cnn(CCC5CCN(S(C)(=O)=O)CC5)c4)cc3C3(CC3)C2=O)c1F` [Example 148, 2′-(2,6-difluoro-3,5-dimethoxyphenyl)-6′-(1-(2-(1-(methylsulfonyl)piperidin-4-yl)ethyl)-1H-pyrazol-4-yl)-1′H-spiro[cyclopropane-1,4′-[2,7]naphthyridin]-3′(2′H)-one], the FGFR1/FGFR3 is listed as more than 10 and the FGFR4/FGFR3 is reported as more than 3.

Take `COc1cc(OC)c(F)c(N2Cc3cnc(-c4cnn(C5(C#N)CCC5)c4C)cc3C3(CC3)C2=O)c1F` [Example 149, 1-(4-(2′-(2,6-difluoro-3,5-dimethoxyphenyl)-3′-oxo-2′,3′-dihydro-1′H-spiro[cyclopropane-1,4′-[2,7]naphthyridine]-6′-yl)-5-methyl-1H-pyrazol-1-yl)cyclobutanecarbonitrile]: the FGFR1/FGFR3 is given as more than 5 and the FGFR4/FGFR3 is listed as more than 3.

As for `COc1cc(OC)c(F)c(N2Cc3cnc(-c4cnn(C5CCN(C(C)=O)C5)c4)cc3C3(CC3)C2=O)c1F` (stereo not shown) [Example 150, 6′-(1-(1-acetylpyrrolidin-3-yl)-1H-pyrazol-4-yl)-2′-(2,6-difluoro-3,5-dimethoxyphenyl)-1′H-spiro[cyclopropane-1,4′-[2,7]naphthyridin]-3′(2′H)-one], the FGFR1/FGFR3 is more than 5 and the FGFR4/FGFR3 was more than 5.

Consider `COc1cc(OC)c(F)c(N2Cc3cnc(-c4cnn(CCCN5CCOCC5)c4)cc3C3(CC3)C2=O)c1F` [Example 151, 2′-(2,6-difluoro-3,5-dimethoxyphenyl)-6′-(1-(3-morpholinopropyl)-1H-pyrazol-4-yl)-1′H-spiro[cyclopropane-1,4′-[2,7]naphthyridin]-3′(2′H)-one], for which the FGFR1/FGFR3 is reported as more than 5 and the FGFR4/FGFR3 is more than 5.

Turning to `COc1cc(OC)c(F)c(N2Cc3cnc(-c4cnn(CCN5CCC(OC)CC5)c4)cc3C3(CC3)C2=O)c1F` [Example 152, 2′-(2,6-difluoro-3,5-dimethoxyphenyl)-6′-(1-(2-(4-methoxypiperidin-1-yl)ethyl)-1H-pyrazol-4-yl)-1′H-spiro[cyclopropane-1,4′-[2,7]naphthyridin]-3′(2′H)-one], the FGFR1/FGFR3 is recorded as more than 5 and the FGFR4/FGFR3 is more than 3.

For the compound `COc1cc(OC)c(F)c(N2Cc3cnc(-c4cn(CC#N)nc4C)cc3C3(CC3)C2=O)c1F` [Example 153, 2-(4-(2′-(2,6-difluoro-3,5-dimethoxyphenyl)-3′-oxo-2′,3′-dihydro-1′H-spiro[cyclopropane-1,4′-[2,7]naphthyridine]-6′-yl)-3-methyl-1H-pyrazol-1-yl)acetonitrile], the FGFR1/FGFR3 is given as more than 5 and the FGFR4/FGFR3 was more than 3.

Take `COc1cc(OC)c(F)c(N2Cc3cnc(-c4cn(C5CCN(CC#N)C5)nc4C)cc3C3(CC3)C2=O)c1F` (stereo not shown) [Example 154, 2-(3-(4-(2′-(2,6-difluoro-3,5-dimethoxyphenyl)-3′-oxo-2′,3′-dihydro-1′H-spiro[cyclopropane-1,4′-[2,7]naphthyridine]-6′-yl)-3-methyl-1H-pyrazol-1-yl)pyrrolidin-1-yl)acetonitrile]: the FGFR1/FGFR3 is recorded as more than 5 and the FGFR4/FGFR3 is given as more than 3.

For `COc1cc(OC)c(F)c(N2Cc3cnc(-c4cn(Cc5cccnc5)nc4C)cc3C3(CC3)C2=O)c1F` [Example 155, 2′-(2,6-difluoro-3,5-dimethoxyphenyl)-6′-(3-methyl-1-(pyridin-3-ylmethyl)-1H-pyrazol-4-yl)-1′H-spiro[cyclopropane-1,4′-[2,7]naphthyridin]-3′(2′H)-one], the FGFR1/FGFR3 is recorded as more than 5 and the FGFR4/FGFR3 was more than 1.

Turning to `COc1cc(OC)c(F)c(N2Cc3cnc(-c4cn(CCC#N)nc4C)cc3C3(CC3)C2=O)c1F` [Example 156, 3-(4-(2′-(2,6-difluoro-3,5-dimethoxyphenyl)-3′-oxo-2′,3′-dihydro-1′H-spiro[cyclopropane-1,4′-[2,7]naphthyridine]-6′-yl)-3-methyl-1H-pyrazol-1-yl)propanenitrile], the FGFR1/FGFR3 is reported as more than 5 and the FGFR4/FGFR3 is reported as more than 1.

With `COc1cc(OC)c(F)c(N2Cc3cnc(-c4cnn(CCN5CCOCC5)c4)cc3C3(CC3)C2=O)c1F` [Example 157, 2′-(2,6-difluoro-3,5-dimethoxyphenyl)-6′-(1-(2-morpholinoethyl)-1H-pyrazol-4-yl)-1′H-spiro[cyclopropane-1,4′-[2,7]naphthyridin]-3′(2′H)-one], the FGFR1/FGFR3 was more than 5 and the FGFR4/FGFR3 is more than 3.

Regarding `CCn1cc(-c2cc3c(cn2)CN(c2c(F)c(OC)cc(OC)c2F)C(=O)C32CC2)c(C)n1` [Example 158, 2′-(2,6-difluoro-3,5-dimethoxyphenyl)-6′-(1-ethyl-3-methyl-1H-pyrazol-4-yl)-1′H-spiro[cyclopropane-1,4′-[2,7]naphthyridin]-3′(2′H)-one], the FGFR1/FGFR3 is given as more than 5 and the FGFR4/FGFR3 is more than 3.

In the case of `COc1cc(OC)c(F)c(N2Cc3cnc(-c4cn(CC(=O)N5CCOCC5)nc4C)cc3C3(CC3)C2=O)c1F` [Example 159, 2′-(2,6-difluoro-3,5-dimethoxyphenyl)-6′-(3-methyl-1-(2-morpholino-2-oxoethyl)-1H-pyrazol-4-yl)-1′H-spiro[cyclopropane-1,4′-[2,7]naphthyridin]-3′(2′H)-one], the FGFR1/FGFR3 is listed as more than 5 and the FGFR4/FGFR3 is more than 3.

Take `COc1cc(OC)c(F)c(N2Cc3cnc(-c4csc(N(C)C)n4)cc3C3(CC3)C2=O)c1F` [Example 160, 2′-(2,6-difluoro-3,5-dimethoxyphenyl)-6′-(2-(dimethylamino)thiazol-4-yl)-1′H-spiro[cyclopropane-1,4′-[2,7]naphthyridin]-3′(2′H)-one]: the FGFR1/FGFR3 is more than 5 and the FGFR4/FGFR3 is reported as more than 5.

For the compound `COc1cc(OC)c(F)c(N2Cc3cnc(-c4cnn(CCN5CCC(OC)C5)c4)cc3C3(CC3)C2=O)c1F` (stereo not shown) [Example 161, 2′-(2,6-difluoro-3,5-dimethoxyphenyl)-6′-(1-(2-(3-methoxypyrrolidin-1-yl)ethyl)-1H-pyrazol-4-yl)-1′H-spiro[cyclopropane-1,4′-[2,7]naphthyridin]-3′(2′H)-one], the FGFR1/FGFR3 was more than 5 and the FGFR4/FGFR3 is given as more than 3.

As to `COc1cc(OC)c(F)c(N2Cc3cnc(-c4cnn(CC5CCCS(=O)(=O)N5)c4)cc3C3(CC3)C2=O)c1F` (stereo not shown) [Example 162, 2′-(2,6-difluoro-3,5-dimethoxyphenyl)-6′-{1-[(1,1-dioxido-1,2-thiazinan-3-yl)methyl]-1H-pyrazol-4-yl}-1′H-spiro[cyclopropane-1,4′-[2,7]naphthyridin]-3′(2′H)-one], the FGFR1/FGFR3 is recorded as more than 5 and the FGFR4/FGFR3 is on record as more than 1.
